Experimental data as given in patent US9994852B2, “Oligonucleotide compositions and uses thereof” (MIRAGEN THERAPEUTICS, INC., priority 2015, dated 2018).
“Also recorded” adds a separate entry of the source. l = locked nucleic acid (LNA); d = 2'-deoxy (DNA)

Key:
Type in all cases: cell-based, human
miR-155-5p [1] = assay: Real time PCR of miR-155 direct target genes in CTCL cell lines treated with antimiR-155 (passive uptake); conditions: for gene expression signature of four direct targets of miR-155-5p vs untreated cells: MJ and HuT102 cells, 72 hours; for gene expression signature of four direct targets of miR-155-5p vs untreated cells / antimiR activity by four-gene signature (Bach1, Jarid2, Picalm, Ship1): 10 μM; for target de-repression: HuT102 and MyLa cell lines; for antimiR activity by four-gene signature (Bach1, Jarid2, Picalm, Ship1): cumulative data across 2 μM, 50 μM and three mycosis fungoides cell lines
Experimental: CTCL cell lines were cultured in complete growth medium with the addition of antimiR-155 compound 1 (SEQ ID NO: 27), compound 2 (SEQ ID NO: 22), compound 3 (SEQ ID NO: 23), and compound 4 (SEQ ID NO: 25) at concentrations ranging from 2 μM to 50 μM. The antimiRs were added to the medium without any additional components to enhance cellular uptake. Cells were harvested after 72 hours of treatment and total RNA was purified. Real time PCR was performed for 13 direct gene targets of miR-155 (Worm et al. 2009; O'Connell et al. 2010; Zhang et al. 2012; and miRagen unpublished data). The relative fold-change in the expression of the 13 genes in the antimiR-treated cells compared to the untreated cells was calculated. […] Four predicted direct targets that lacked expression in at least one cell line were omitted. The gene expression fold-changes were log 10-transformed, plotted on a grayscale, representing the highest relative increase in gene expression, and conversely, the greatest reduction in gene expression.
Four direct gene targets of miR-155-5p (Bach1, Jarid2, Picalm, and Ship1) were chosen for additional analysis, as these four genes were modulated by antimiR-155 in all three mycosis fungoides cell lines (MJ, HuT102, and My-La). These genes were chosen to represent the gene expression signature for antimiR activity in vitro. Additionally, the four-gene signature was used to compare the activity of the antimiR compounds. These gene changes were reproducible over three independent experiments with cells of varying passage numbers. FIGS. 3, 4, 5, 6, and 7 show the fold-change results of this four-gene signature in the HuT102, MJ, HH, My-La, and Hut78 cell lines, respectively. * p-value<0.0001 vs untreated by nonparametric Mann-Whitney test. The Mann-Whitney test was chosen because the variances are unequal between the treatments compared to untreated cells.
The control oligonucleotide was a 14-nucleotide antimiR targeting a C. elegans miRNA not expressed in mammals (control 1). The second oligo is a scramble of the 14-nucleotide sequence of antimiR-155 compound 4 (control 2). The MJ and HuT102 cell lines were incubated with 10 μM antimiR-155 compounds 3 (SEQ ID NO: 23) or 4 (SEQ ID NO: 25) or the two control oligos for 72 hours.

miR-155 = assay: Dual luciferase reporter assay with miR-155 binding site in HeLa cells; conditions: 10 nM miR-155 mimic, 2 nM oligonucleotide
Source text: To assess the activity of a miR-155 inhibitor, a dual luciferase reporter assay system was used. In brief, the binding site for miR-155 was cloned into the 3′ UTR of the Renilla luciferase gene located within the commercially-available psiCHECK-2 vector system (Promega). In the absence of a miR-155 inhibitor, the expression of Renilla luciferase protein is repressed by a miR-155 mimic. In the presence of a miR-155 inhibitor, the expression of Renilla luciferase protein is de-repressed. […] Expression of either Renilla or firefly luciferase is measured through detection of light emitted by the luciferase protein.
50 ng of the dual luciferase reporter plasmid containing the miR-155 binding site was transfected into HeLa cells without a miR-155 mimic (“Reporter” only), with 10 nM miR-155 mimic (“Reporter+mimic”), with 10 nM miR-155 mimic and 2 nM of the control oligonucleotide, or with 10 nM miR-155 mimic and 2 nM of a test miR-155 oligonucleotide inhibitor of 11-14 nucleotide lengths (Table 4). The miR-155 mimic was purchased from Dharmacon (miRIDIAN microRNA Human hsa-miR-155-5p mimic; Accession number MIMAT0000646; catalog # C-300647-05-0005) and contains the mature miRNA sequence: -[…]- (SEQ ID NO: 121). The control oligonucleotide used in the experiment had the following sequence: 5′-lCs.dTs.dAs.lGs.dAs.lAs.dAs.lGslAs.dGs.lTs.dAs.lGs.lA-3′ (SEQ ID NO: 122).

HuT102 cells [2] = assay: Proliferation of HuT102 cells (cell number by ATP level); conditions: for proliferation (cell number by ATP): over time
Experimental: (§1) Since the level of ATP correlates directly with cell number, ATP was measured to determine the cell number. […] The reduction in cell number was accompanied by an increase in apoptosis as measured by caspase 3/7 activity (FIG. 14B). The caspase 3 and 7 proteins are members of the cysteine aspartic acid-specific protease (caspase) family. The caspase family plays key effector roles in apoptosis in mammalian cells. Caspase activity was normalized to ATP levels, as all cells have a low level of basal caspase activity that can confound the results if not normalized appropriately.
(§2) In addition to a time course, a dose titration of antimiR-155 compounds in HuT102 cells was performed with ATP and caspase 3/7 measurements performed after eight days of treatment (FIGS. 15A and 15B, respectively).

HuT102 cells [3] = assay: Apoptosis by caspase 3/7 activity in HuT102 cells; conditions: for apoptosis (caspase 3/7 activity normalized to ATP): over time
Experimental: as §1, §2

My-La cells [4] = assay: Proliferation of My-La cells (ATP)
Experimental: (§3) FIGS. 17A and 17B show proliferation and activation of caspase 3/7 over time with compounds 3 (SEQ ID NO: 23) and 4 (SEQ ID NO: 25).
(§4) In addition to a time course, a dose titration of antimiR-155 compounds in My-La cells was performed with ATP and caspase 3/7 measurements after eight days of treatment (FIGS. 18A and 18B, respectively).

My-La cells [5] = assay: Caspase 3/7 activity in My-La cells; conditions: over time
Experimental: as §3, §4

miR-155-5p [6] = assay: Whole genome expression profiling of CTCL cell lines treated with antimiR-155
Experimental: To gain a more complete understanding of the molecular consequences of miR-155 inhibition in mycosis fungoides cell lines, whole genome transcriptome profiling was performed on MJ and HuT102 cell lines treated with antimiR-155 compounds 3 (SEQ ID NO: 23) or 4 (SEQ ID NO: 25) for 4 days (96 hours) or 8 days. The statistically-significant gene expression signature was defined by one-way ANOVA for antimiR-treated cells compared to untreated cells at the same time point. […] The fold-change results are shown in FIGS. 9 and 10 as heat maps, as described for FIG. 2.
The gene expression profile common to both cell lines and both compounds at Day 4 was analyzed for the enrichment of miR-155-5p seed-matched gene targets (8-, 7-, and 6-nucleotide binding sites). The fold-change of these genes is represented in a heat map in FIG. 11. […] The gene signature was also analyzed using the DAVID bioinformatic resource for functional gene annotation enrichment (Huang da et al., 2009). There was no significant enrichment of Gene Ontology database terms as defined by a Benjamini-corrected p-value of <0.01.
The gene expression signature common to both cell lines and both compounds at Day 8 (677 genes in total) was subjected to analysis for enrichment of seed-matched gene targets and for functional gene annotation.
The activity of antimiR-155 compound 4 (SEQ ID NO: 25) was further investigated by treating the third mycosis fungoides cell line, MyLa, with compound 4 (SEQ ID NO: 25) for 4 days and 8 days and profiling the changes in gene expression. To test the specificity of compound 4 (SEQ ID NO: 25), cells of the Sézary syndrome cell line (HuT78) were treated with compound 4 (SEQ ID NO: 25) for 8 days and the changes in gene expression were profiled. Genes that are statistically changed with a false discovery rate (FDR) corrected p-value of <0.05 in response to compound 4 (SEQ ID NO: 25) in three mycosis fungoides cell lines, HuT102, MJ, and My-La, are depicted in the heat map as described above. The total number of genes in the heat map is 324. […]

HuT102 cells [7] = assay: AntimiR-155 combined with HDAC inhibitor SAHA: caspase 3/7 activity in HuT102 cells; conditions: 10 μM compound combined with 0.25 or 0.5 μM SAHA
Experimental: Vorinostat (chemical name: SAHA) is a standard-of-care epigenetic therapy for patients with advanced mycosis fungoides. However, the side-effects of pan-HDAC inhibitors are well-described. To determine whether a combination therapy might show enhanced activity compared to treatment with individual compounds, HuT102 cells were treated with a sub-efficacious dose of SAHA combined with antimiR-155.
HuT102 cells were treated with 0.25 μM SAHA and 10 μM compound 3 (SEQ ID NO: 23) or 4 (SEQ ID NO: 25), individually or in combination. Cells were harvested daily to measure ATP levels and caspase 3/7 activity. A similar experiment was performed with 0.50 μM SAHA.
FIGS. 20A and 20B show the effect on caspase 3/7 activity.

Row | Substance | gene expression signature of four direct targets of miR-155-5p vs untreated cells (miR-155-5p [1]) | de-repression of Renilla luciferase expression (miR-155) | target de-repression (miR-155-5p [1]) | antimiR activity by four-gene signature (Bach1, Jarid2, Picalm, Ship1) (miR-155-5p [1]) | proliferation (cell number by ATP) (HuT102 cells [2]) | apoptosis (caspase 3/7 activity normalized to ATP) (HuT102 cells [3]) | proliferation (ATP) (My-La cells [4]; over time) | activation of caspase 3/7 (My-La cells [5]) | number of genes up- or down-regulated in all three mycosis fungoides cell lines (Table 2) (miR-155-5p [6]; HuT102, MJ, MyLa, Day 4 or Day 8) | magnitude of gene regulation (whole genome heat map) (miR-155-5p [6]; MJ and HuT102 cells, 4 days and 8 days) | change in gene expression (miR-155-5p [6]; Sézary syndrome cell line HuT78, 8 days) | proliferation (ATP) (HuT102 cells [2]; day 8 of treatment) | caspase 3/7 activity (HuT102 cells [3]; day 8 of treatment) | apoptosis (caspase 3/7 activity normalized to ATP) (HuT102 cells [3]; listed as Compound 4) | proliferation (ATP) (My-La cells [4]; dose titration, eight days of treatment) | apoptosis (caspase 3/7 activity) (HuT102 cells [7])
1 | 5′-lCs.dGs.lAs.lTs.lTs.dAs.lGs.dCs.lAs.lTs.lTs.lA-3′ (CGATTAGCATTA; sugars from the 5' end ldllldldllll, all phosphorothioate, methylation of C not given here) [compound 3] | statistically significantly different from that of untreated cells |  |  |  |  |  |  |  |  |  |  |  |  |  |  | 
2 | 5′-lCs.dTs.dAs.lGs.dAs.lAs.dAs.lGslAs.dGs.lTs.dAs.lGs.lA-3′ (CTAGAAAGAGTAGA; sugars from the 5' end lddldldlldldll, all phosphorothioate, methylation of C not given here) [control oligonucleotide, control oligonucleotide used in the dual luciferase reporter experiment] |  | did not de-repress the expression of luciferase |  |  |  |  |  |  |  |  |  |  |  |  |  | 
3 | 5′-lCs.dGs.lAs.lTs.lTs.lAs.lGs.dCs.lAs.lTs.lTs.lA-3′ (CGATTAGCATTA; sugars from the 5' end l1 d1 l5 d1 l4, all phosphorothioate, methylation of C not given here) [compound 2] |  |  | greater target de-repression than antimiR-155 compound 3 (SEQ ID NO: 23) | more active than compounds 1 (SEQ ID NO: 27) and 3 (SEQ ID NO: 23) | greater inhibition of proliferation | greater apoptotic activity | greater inhibition of proliferation | greater apoptotic activity |  |  |  |  |  |  |  | 
4 | 5′-lCs.dAs.lCs.dGs.dAs.lTs.lTs.dAs.lGs.dCs.lAs.lTs.lTs.lA-3′ (CACGATTAGCATTA; sugars from the 5' end ldlddlldldllll, all phosphorothioate, methylation of C not given here) [compound 4] | statistically significantly different from that of untreated cells |  | greater target de-repression than antimiR-155 compound 3 (SEQ ID NO: 23) | more active than compounds 1 (SEQ ID NO: 27) and 3 (SEQ ID NO: 23) | greater inhibition of proliferation; also recorded: comparable to that seen with bexarotene | greater apoptotic activity | greater inhibition of proliferation; also recorded: greater activity compared to compound 3 (SEQ ID NO: 23) | greater apoptotic activity; also recorded: greater activity compared to compound 3 (SEQ ID NO: 23) | 587 | greater magnitude of gene regulation in both cell lines and at both time points | did not show much change in the gene expression | confirm the inhibitory potential | confirm the inhibitory potential | greater induction of apoptosis than bexarotene | further confirm the inhibitory potential | increased apoptosis compared to each treatment alone
